What all share (assay type): cell-based
For one test, the system named is E. coli strain MP-4. As to the kind of experiment: Broth dilution MIC determination (CLSI) against E. coli strain MP-4. To be noted: Escherichia coli, MP4. The method, boiled down: (§1)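 CLSI broth microdilution, macrolide test compounds; MIC reported as category: ≤4 mg/L = +++, 8–<32 mg/L = ++, ≥32 mg/L = +.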
The subject of test [1] is K. pneumoniae strain MP-548. The test is described as follows: Broth dilution MIC determination (CLSI) against K. pneumoniae strain MP-548. The note with it: Klebsiella pneumoniae, MP548. The method, boiled down: as §1
Test [2] concerns P. aeruginosa strain MP-3. As to the kind of experiment: Broth dilution MIC determination (CLSI) against P. aeruginosa strain MP-3. The note with it: Pseudomonas aeruginosa, MP3. The method, boiled down:
as §1
In general terms: In broth dilution the organism is exposed to a series of concentrations in liquid medium.

Another test concerns S. aureus strain MP-12. As to the kind of experiment: Broth dilution MIC determination (CLSI) against S. aureus strain MP-12. To be noted: Staphylococcus aureus, MP12, strain MP-12. The essentials: as §1
The test system of test [3] is A. baumannii strain MP-15. The test is described as follows: Broth dilution MIC determination (CLSI) against A. baumannii strain MP-15. To be noted: Acinetobacter baumannii, MP15. The method, boiled down: as §1

Each structure is given as a SMILES string. ≈ marks a conversion by molar mass, not a printed value.

Turning to `CC[C@H]1OC(=O)C(C)C(=O)[C@H](C)[C@@H](OC2OC(CN(C)CC)CC(N(C)C)C2O)[C@](C)(OC)C[C@@H](C)CN(C)[C@H](C)[C@H]2NC(=O)O[C@@]21C` (stereo partly drawn) [Compound 158, 3-Descladinosyl-3-oxo-6-O-methyl-11,12-dideoxy-12,11-(oxycarbonylimino)-6′-ethylmethylamino Azithromycin], the minimal inhibitory concentration (MIC) (as a rule, the lowest concentration that inhibits growth of the organism) against E. coli strain MP-4 was at most 4 µg/mL; in test [1] it was 8 to 32 µg/mL (≈ 11.7 to 46.7 µM); in test [2] it was at least 32 µg/mL; in the test with S. aureus strain MP-12 it was at least 32 µg/mL; in test [3] it was at least 32 µg/mL.
Take `CC[C@H]1OC(=O)C(C)C(=O)[C@H](C)[C@@H](OC2OC(CN(C)C)CC(N(C)C)C2O)[C@](C)(OC)C[C@@H](C)CN(C)[C@H](C)[C@H]2NC(=O)O[C@@]21C` (stereo partly drawn) [Compound 159, 3-Descladinosyl-3-oxo-6-O-methyl-11,12-dideoxy-12,11-(oxycarbonylimino)-6′-dimethylamino Azithromycin]: the MIC against E. coli strain MP-4 was at most 4 µg/mL; in test [1], 8 to 32 µg/mL (≈ 11.9 to 47.7 µM); in test [2], at least 32 µg/mL; in the test with S. aureus strain MP-12, at least 32 µg/mL; in test [3] it was at least 32 µg/mL.
For the molecule `CC[C@H]1OC(=O)C(C)C(=O)[C@H](C)[C@@H](OC2OC(CN(C)C(C)C)CC(N(C)C)C2O)[C@](C)(OC)C[C@@H](C)CN(C)[C@H](C)[C@H]2NC(=O)O[C@@]21C` (stereo partly drawn) [Compound 160, 3-Desdadinosyl-3-oxo-6-O-methyl-9a-desmethyl-11,12-dideoxy-12,11-(oxycarbonylimino)-6′-isopropylmethylamino Azithromycin], the minimal inhibitory concentration (MIC) in the test on E. coli strain MP-4 is at most 4 µg/mL; in test [1], at least 32 µg/mL; in test [2], at least 32 µg/mL; in the test with S. aureus strain MP-12 it was at least 32 µg/mL; in test [3] it was at least 32 µg/mL.
On to `CC[C@H]1OC(=O)C(C)C(=O)[C@H](C)[C@@H](O[C@@H]2O[C@H](CNC3CC3)CC(N(C)C)[C@H]2O)[C@](C)(OC)C[C@@H](C)CN(C)[C@H](C)[C@H]2NC(=O)O[C@@]21C` (stereo partly drawn) [Compound 161, 3-Descladinosyl-3-oxo-6-O-methyl-11,12-dideoxy-12,11-(oxycarbonylimino)-6′-cyclopropylamino Azithromycin], for which the MIC was at most 4 µg/mL against E. coli strain MP-4; at most 4 µg/mL in test [1]; at least 32 µg/mL in test [2]; 8 to 32 µg/mL (≈ 11.7 to 46.9 µM) in the test on S. aureus strain MP-12; 8 to 32 µg/mL (≈ 11.7 to 46.9 µM) in test [3].
On to `CC[C@H]1OC(=O)C(C)C(=O)[C@H](C)[C@@H](O[C@@H]2O[C@H](CNCC3CC3)CC(N(C)C)[C@H]2O)[C@](C)(OC)C[C@@H](C)CN(C)[C@H](C)[C@H]2NC(=O)O[C@@]21C` (stereo partly drawn) [Compound 162, 3-Descladinosyl-3-oxo-6-O-methyl-11,12-dideoxy-12,11-(oxycarbonylimino)-6′-cyclopropylmethylamino Azithromycin], for which the MIC with E. coli strain MP-4 is at most 4 µg/mL; in test [1] it was 8 to 32 µg/mL (≈ 11.5 to 45.9 µM); in test [2], at least 32 µg/mL; with S. aureus strain MP-12 it was at least 32 µg/mL; in test [3], at least 32 µg/mL.
Consider `CC[C@H]1OC(=O)C(C)C(=O)[C@H](C)[C@@H](O[C@@H]2O[C@H](CNC3CCC3)CC(N(C)C)[C@H]2O)[C@](C)(OC)C[C@@H](C)CN(C)[C@H](C)[C@H]2NC(=O)O[C@@]21C` (stereo partly drawn) [Compound 163, 3-Descladinosyl-3-oxo-6-O-methyl-11,12-dideoxy-12,11-(oxycarbonylimino)-6′-cyclobutylamino Azithromycin], for which the minimum inhibitory concentration (MIC) was at most 4 µg/mL against E. coli strain MP-4; at most 4 µg/mL in test [1]; at least 32 µg/mL in test [2]; at least 32 µg/mL in the test on S. aureus strain MP-12; at least 32 µg/mL in test [3].
Regarding `CC[C@H]1OC(=O)C(C)C(=O)[C@H](C)[C@@H](O[C@@H]2O[C@H](CNC(C)C)CC(N(C)C)[C@H]2O)[C@](C)(OC)C[C@@H](C)CN(C)[C@H](C)[C@H]2NC(=O)O[C@@]21C` (stereo partly drawn) [Compound 164, 3-Descladinosyl-3-oxo-6-O-methyl-11,12-dideoxy-12,11-(oxycarbonylimino)-6′-isopropylamino Azithromycin], the MIC against E. coli strain MP-4 was at most 4 µg/mL; in test [1], 8 to 32 µg/mL (≈ 11.7 to 46.7 µM); in test [2], at least 32 µg/mL; in the test with S. aureus strain MP-12, at least 32 µg/mL; in test [3], at least 32 µg/mL.
In the case of `CCNC[C@@H]1CC(N(C)C)[C@@H](O)[C@H](O[C@@H]2[C@@H](C)C(=O)C(C)C(=O)O[C@H](CC)[C@@]3(C)OC(=O)N[C@@H]3[C@@H](C)N(C)C[C@H](C)C[C@@]2(C)OC)O1` (stereo partly drawn) [Compound 165, 3-Descladinosyl-3-oxo-6-O-methyl-11,12-dideoxy-12,11-(oxycarbonylimino)-6′-ethylamino Azithromycin], the minimum inhibitory concentration (MIC) in the test with E. coli strain MP-4 was at most 4 µg/mL; in test [1], 8 to 32 µg/mL (≈ 11.9 to 47.7 µM); in test [2] it was at least 32 µg/mL; in the test on S. aureus strain MP-12, at least 32 µg/mL; in test [3], at least 32 µg/mL.
As to `CC[C@H]1OC(=O)C(C)C(=O)[C@H](C)[C@@H](OC2OC(C(=O)NC)CC(N(C)C)C2O)[C@](C)(OC)C[C@@H](C)CN[C@H](C)[C@H]2NC(=O)O[C@@]21C` (stereo partly drawn) [Compound 166, 3-Descladinosyl-3-oxo-6-O-methyl-N9a-desmethyl-11,12-dideoxy-12,11-(oxycarbonylimino)-5′-desmethyl-5′-(N-methylcarboxamido) Azithromycin], the MIC is 8 to 32 µg/mL (≈ 12.2 to 48.7 µM) in the test on E. coli strain MP-4; at least 32 µg/mL in test [1]; at least 32 µg/mL in test [2]; at least 32 µg/mL in the test on S. aureus strain MP-12; at least 32 µg/mL in test [3].
Regarding `CC[C@H]1OC(=O)C(C)C(=O)[C@H](C)[C@@H](OC2OC(C(=O)N(C)C)CC(N(C)C)C2O)[C@](C)(OC)C[C@@H](C)CN[C@H](C)[C@H]2NC(=O)O[C@@]21C` (stereo partly drawn) [Compound 167, 3-Descladinosyl-3-oxo-6-O-methyl-N9a-desmethyl-11,12-dideoxy-12,11-(oxycarbonylimino)-5′-desmethyl-5′-(N,N-dimethylcarboxamido) Azithromycin], the minimal inhibitory concentration (MIC) (with E. coli strain MP-4; in test [1]; in test [2]; in the test on S. aureus strain MP-12; in test [3]) was at least 32 µg/mL in each case.
Take `CC[C@H]1OC(=O)C(C)C(=O)[C@H](C)[C@@H](OC2OC(C(=O)N(C)C3CC3)CC(N(C)C)C2O)[C@](C)(OC)C[C@@H](C)CN[C@H](C)[C@H]2NC(=O)O[C@@]21C` (stereo partly drawn) [Compound 168, 3-Descladinosyl-3-oxo-6-O-methyl-N9a-desmethyl-11,12-dideoxy-12,11-(oxycarbonylimino)-5′-desmethyl-5′-(N,N-cyclopropyl(methyl)carboxamido) Azithromycin]: the minimum inhibitory concentration (MIC) (with E. coli strain MP-4; in test [1]; in test [2]; against S. aureus strain MP-12; in test [3]) was at least 32 µg/mL throughout.
Regarding `CC[C@H]1OC(=O)C(C)C(=O)[C@H](C)[C@@H](OC2OC(CN(C)C(C)=O)CC(N(C)C)C2O)[C@](C)(OC)C[C@@H](C)CN[C@H](C)[C@H]2NC(=O)O[C@@]21C` (stereo partly drawn) [Compound 169, 3-Descladinosyl-3-oxo-6-O-methyl-N9a-desmethyl-11,12-dideoxy-12,11-(oxycarbonylimino)-6′-(N-methyl-N-acetylamino) Azithromycin], the minimum inhibitory concentration (MIC) (against E. coli strain MP-4; in test [1]; in test [2]; against S. aureus strain MP-12; in test [3]) was at least 32 µg/mL throughout.

For the origin of these results see patent US11673910B2, “Macrolides with modified desosamine sugars and uses thereof” (Zikani Therapeutics, Inc., priority 2017, dated 2023).
